Measured values: patent US10047051B2, “Substituted pyridines and method of use” (AbbVie S.á{acute over (.)}r.l., priority 2015, dated 2018)

Assays:
CFTR ΔF508 mutant = target: T1, CFTR ΔF508 mutant (Homo sapiens, UniProt P13569, DEL508-508); test: YFP-halide influx assay for the CFTR-ΔF508 mutation (CFBE41o- cells); format: cell-based; details: forskolin 10.67 μM; for EC50: from (1−F/F0) vs concentration plot
T1 construct: expressed in transfected cells; host or cells: CFBE41o- cells, adenoviral transduction
T1 sequence (P13569 with tags, fused parts or gaps DEL508-508): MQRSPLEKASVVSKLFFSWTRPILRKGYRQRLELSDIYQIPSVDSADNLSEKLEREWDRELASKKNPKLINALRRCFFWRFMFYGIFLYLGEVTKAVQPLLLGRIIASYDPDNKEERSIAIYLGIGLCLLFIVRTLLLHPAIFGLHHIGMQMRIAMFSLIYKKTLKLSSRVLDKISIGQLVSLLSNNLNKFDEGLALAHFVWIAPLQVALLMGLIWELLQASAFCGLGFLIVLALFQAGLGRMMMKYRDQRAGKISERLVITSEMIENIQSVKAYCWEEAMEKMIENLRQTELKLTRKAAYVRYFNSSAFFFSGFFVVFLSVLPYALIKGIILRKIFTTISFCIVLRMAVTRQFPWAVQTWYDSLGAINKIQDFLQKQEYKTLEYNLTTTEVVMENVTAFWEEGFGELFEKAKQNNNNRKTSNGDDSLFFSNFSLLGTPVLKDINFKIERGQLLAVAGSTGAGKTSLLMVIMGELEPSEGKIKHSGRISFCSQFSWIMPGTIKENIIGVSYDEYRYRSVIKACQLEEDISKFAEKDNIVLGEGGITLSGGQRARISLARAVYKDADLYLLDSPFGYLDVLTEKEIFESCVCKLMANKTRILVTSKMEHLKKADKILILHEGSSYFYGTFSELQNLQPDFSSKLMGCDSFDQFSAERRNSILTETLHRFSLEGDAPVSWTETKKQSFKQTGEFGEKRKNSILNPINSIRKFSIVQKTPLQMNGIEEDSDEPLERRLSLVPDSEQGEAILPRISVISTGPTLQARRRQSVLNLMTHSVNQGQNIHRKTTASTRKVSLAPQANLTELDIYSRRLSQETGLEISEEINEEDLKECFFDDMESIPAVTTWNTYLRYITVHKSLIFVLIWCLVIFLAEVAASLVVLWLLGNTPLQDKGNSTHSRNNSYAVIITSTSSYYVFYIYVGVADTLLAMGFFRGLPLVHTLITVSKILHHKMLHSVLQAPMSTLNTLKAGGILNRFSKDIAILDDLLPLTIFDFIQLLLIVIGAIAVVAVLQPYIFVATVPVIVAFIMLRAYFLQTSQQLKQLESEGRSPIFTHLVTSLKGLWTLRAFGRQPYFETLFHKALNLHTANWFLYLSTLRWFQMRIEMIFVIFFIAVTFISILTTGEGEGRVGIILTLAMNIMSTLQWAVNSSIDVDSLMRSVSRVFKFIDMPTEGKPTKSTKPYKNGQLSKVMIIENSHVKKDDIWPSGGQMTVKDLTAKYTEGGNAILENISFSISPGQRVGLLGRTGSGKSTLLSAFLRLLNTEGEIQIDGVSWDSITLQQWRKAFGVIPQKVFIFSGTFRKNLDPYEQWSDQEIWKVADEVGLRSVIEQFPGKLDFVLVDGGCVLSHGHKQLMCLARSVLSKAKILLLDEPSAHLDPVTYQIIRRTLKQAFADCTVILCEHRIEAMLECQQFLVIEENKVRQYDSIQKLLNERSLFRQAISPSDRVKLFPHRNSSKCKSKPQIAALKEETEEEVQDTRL
How it was run: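 EC50 derived from plotting 1−F/F0 (fluorescence 36 s after iodide injection over pre-injection value) against compound concentration. Cells: CFBE41o- transduced with ΔF508-CFTR and YFP quench reporter, corrected 24 h at 27° C or by a CFTR modulator at 37° C.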

CFTR G551D mutant = target: T2, CFTR G551D mutant (Homo sapiens, UniProt P13569, G551D); test: YFP-halide influx assay for the CFTR-G551D mutation (HEK293 cells); format: cell-based; details: forskolin 10.67 μM
T2 construct: expressed in transfected cells; host or cells: HEK293 cells, reverse transfection with plasmids
T2 sequence (P13569 whole entry G551D): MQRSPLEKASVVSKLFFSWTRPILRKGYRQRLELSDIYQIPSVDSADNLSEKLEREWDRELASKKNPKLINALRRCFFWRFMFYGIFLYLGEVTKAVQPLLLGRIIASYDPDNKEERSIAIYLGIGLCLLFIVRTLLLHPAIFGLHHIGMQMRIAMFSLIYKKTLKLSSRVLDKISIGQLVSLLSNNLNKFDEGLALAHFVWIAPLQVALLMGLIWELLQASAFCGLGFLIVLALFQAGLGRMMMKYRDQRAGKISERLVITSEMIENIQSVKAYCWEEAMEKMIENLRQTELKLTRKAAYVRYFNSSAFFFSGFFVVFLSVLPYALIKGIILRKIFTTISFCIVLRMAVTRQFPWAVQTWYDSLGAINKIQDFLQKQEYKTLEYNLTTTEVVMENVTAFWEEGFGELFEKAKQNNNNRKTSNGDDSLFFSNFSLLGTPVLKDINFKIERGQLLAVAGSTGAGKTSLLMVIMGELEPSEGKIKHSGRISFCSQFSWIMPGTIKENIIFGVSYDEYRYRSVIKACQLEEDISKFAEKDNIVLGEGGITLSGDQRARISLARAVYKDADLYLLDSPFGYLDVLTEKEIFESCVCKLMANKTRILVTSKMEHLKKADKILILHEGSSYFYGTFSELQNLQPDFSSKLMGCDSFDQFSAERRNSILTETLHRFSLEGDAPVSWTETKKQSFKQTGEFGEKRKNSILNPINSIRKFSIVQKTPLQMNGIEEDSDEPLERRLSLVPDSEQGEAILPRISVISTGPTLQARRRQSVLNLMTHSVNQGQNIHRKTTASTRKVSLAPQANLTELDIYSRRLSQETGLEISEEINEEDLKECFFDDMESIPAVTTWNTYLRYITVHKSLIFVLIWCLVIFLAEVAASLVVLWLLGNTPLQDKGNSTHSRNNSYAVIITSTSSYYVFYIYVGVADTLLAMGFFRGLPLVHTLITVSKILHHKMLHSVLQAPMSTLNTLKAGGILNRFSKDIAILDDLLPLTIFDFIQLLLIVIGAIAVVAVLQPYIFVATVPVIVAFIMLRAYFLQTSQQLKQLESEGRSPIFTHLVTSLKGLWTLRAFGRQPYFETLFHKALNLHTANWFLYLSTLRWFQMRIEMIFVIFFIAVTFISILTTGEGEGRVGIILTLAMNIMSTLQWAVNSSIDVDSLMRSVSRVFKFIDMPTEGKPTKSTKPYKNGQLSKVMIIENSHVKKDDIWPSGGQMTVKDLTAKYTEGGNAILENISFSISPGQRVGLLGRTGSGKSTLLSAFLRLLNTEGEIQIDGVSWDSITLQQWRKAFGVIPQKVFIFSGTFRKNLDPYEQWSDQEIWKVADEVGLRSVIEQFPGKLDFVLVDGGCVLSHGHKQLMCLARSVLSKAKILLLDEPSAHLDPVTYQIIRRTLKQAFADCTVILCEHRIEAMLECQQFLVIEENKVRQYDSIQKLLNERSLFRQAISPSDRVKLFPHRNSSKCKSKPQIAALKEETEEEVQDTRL
How it was run: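 Channel opening read as I⁻-driven quenching of a YFP H148Q/I152L/F47L reporter over 7 s post-injection, expressed as 1−F/F0 and fitted against concentration for EC50. Cells were HEK293 co-transfected at seeding with G551D CFTR plus reporter, then grown 24 h at 37 °C, 5% CO2.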

**Q.** With CC1(F)CN(C(=O)c2ncc(S(=O)(=O)c3ccc(C(F)(F)F)cc3)cc2N)C1 [Compound 294, (3-amino-5-{[4-(trifluoromethyl)phenyl]sulfonyl}pyridin-2-yl)(3-fluoro-3-methylazetidin-1-yl)methanone] as the compound, how does the “% Activation” value (CFTR ΔF508 mutant) read?
**A.** 97.5%

**Q.** And the EC50 (CFTR ΔF508 mutant)?
**A.** 0.0096 µM

**Q.** And the “% Activation” value (CFTR G551D mutant)?
**A.** 104.0%

**Q.** And the EC50 (CFTR G551D mutant)?
**A.** 0.967 µM

**Q.** With CCS(=O)(=O)c1cc(N)c(C(=O)NC[C@H](C)O)nc1C1CC1 [Compound 275, 3-amino-6-cyclopropyl-5-(ethylsulfonyl)-N-[(2S)-2-hydroxypropyl]pyridine-2-carboxamide] as the compound, how does the “% Activation” value (CFTR ΔF508 mutant) read?
**A.** 68.5%

**Q.** What about the EC50 (CFTR ΔF508 mutant) of the same compound?
**A.** > 0.667 µM

**Q.** What about the “% Activation” value (CFTR G551D mutant) of the same compound?
**A.** 4.2%

**Q.** What about the EC50 (CFTR G551D mutant) of the same compound?
**A.** > 10 µM

**Q.** For CC(C)COCC(O)CNC(=O)c1ncc(S(=O)(=O)c2ccc(OC(F)(F)F)cc2F)cc1N (stereo not drawn) [Compound 171, 3-amino-5-{[2-fluoro-4-(trifluoromethoxy)phenyl]sulfonyl}-N-[2-hydroxy-3-(2-methylpropoxy)propyl]pyridine-2-carboxamide], which “% Activation” value (CFTR ΔF508 mutant) is on record?
**A.** 103.7%

**Q.** What about the EC50 (CFTR ΔF508 mutant) of the same compound?
**A.** 0.0087 µM

**Q.** And the “% Activation” value (CFTR G551D mutant)?
**A.** 86.4%

**Q.** And the EC50 (CFTR G551D mutant)?
**A.** 0.991 µM

**Q.** Nc1cc(S(=O)(=O)c2ccc(C(F)(F)F)cc2)cnc1C(=O)NCCC(F)(F)F [Compound 212, 3-amino-5-{[4-(trifluoromethyl)phenyl]sulfonyl}-N-(3,3,3-trifluoropropyl)pyridine-2-carboxamide] was tested. Which “% Activation” value (CFTR ΔF508 mutant) did it give?
**A.** 96.7%

**Q.** What about the EC50 (CFTR ΔF508 mutant) of the same compound?
**A.** 0.0471 µM

**Q.** And the “% Activation” value (CFTR G551D mutant)?
**A.** 33.0%

**Q.** Which results are given for COC1CN(C(=O)c2ncc(S(=O)(=O)c3ccc(OC(F)(F)F)cc3)cc2N)C1 [Compound 42, (3-amino-5-{[4-(trifluoromethoxy)phenyl]sulfonyl}pyridin-2-yl)(3-methoxyazetidin-1-yl)methanone]?
**A.** % Activation (CFTR ΔF508 mutant): 105.5%; EC50 (CFTR ΔF508 mutant): 0.0371 µM; % Activation (CFTR G551D mutant): 64.3%; EC50 (CFTR G551D mutant): > 3.33 µM

**Q.** With CN(Cc1ccc(F)c(F)c1)S(=O)(=O)c1cnc(C(=O)NCC(O)C(F)(F)F)c(N)c1 (stereo not drawn) [Compound 136, 3-amino-5-[(3,4-difluorobenzyl)(methyl)sulfamoyl]-N-(3,3,3-trifluoro-2-hydroxypropyl)pyridine-2-carboxamide] as the compound, how does the “% Activation” value (CFTR ΔF508 mutant) read?
**A.** 113.7%

**Q.** And the EC50 (CFTR ΔF508 mutant)?
**A.** 0.0029 µM

**Q.** And the “% Activation” value (CFTR G551D mutant)?
**A.** 53.4%

**Q.** What about the EC50 (CFTR G551D mutant) of the same compound?
**A.** > 3.33 µM

**Q.** For Nc1cc(S(=O)(=O)c2ccccc2OC(F)(F)F)cnc1C(=O)N[C@@H]1COCC[C@@H]1O (racemic) [Compound 83, rac-3-amino-N-[(3R,4S)-4-hydroxytetrahydro-2H-pyran-3-yl]-5-{[2-(trifluoromethoxy)phenyl]sulfonyl}pyridine-2-carboxamide], which “% Activation” value (CFTR ΔF508 mutant) is on record?
**A.** 98.3%

**Q.** And the EC50 (CFTR ΔF508 mutant)?
**A.** 0.0063 µM

**Q.** What about the “% Activation” value (CFTR G551D mutant) of the same compound?
**A.** 90.4%

**Q.** And the EC50 (CFTR G551D mutant)?
**A.** 1.2 µM

**Q.** With COCCC(C)(O)CNC(=O)c1ncc(S(=O)(=O)c2ccc(C(F)(F)F)cc2)cc1N (stereo not drawn) [Compound 167, 3-amino-N-(2-hydroxy-4-methoxy-2-methylbutyl)-5-{[4-(trifluoromethyl)phenyl]sulfonyl}pyridine-2-carboxamide] as the compound, how does the “% Activation” value (CFTR ΔF508 mutant) read?
**A.** 98.3%

**Q.** And the EC50 (CFTR ΔF508 mutant)?
**A.** 0.0417 µM

**Q.** What about the “% Activation” value (CFTR G551D mutant) of the same compound?
**A.** 71.5%

**Q.** And the EC50 (CFTR G551D mutant)?
**A.** 1.55 µM

**Q.** What does the source list for Nc1cc(S(=O)(=O)c2ccc(C(F)(F)F)cc2)cnc1C(=O)NCC(O)COCC(F)(F)F (stereo not drawn) [Compound 201, 3-amino-N-[2-hydroxy-3-(2,2,2-trifluoroethoxy)propyl]-5-{[4-(trifluoromethyl)phenyl]sulfonyl}pyridine-2-carboxamide]?
**A.** % Activation (CFTR ΔF508 mutant): 104.0%; EC50 (CFTR ΔF508 mutant): 0.0147 µM; % Activation (CFTR G551D mutant): 59.8%; EC50 (CFTR G551D mutant): 0.523 µM

**Q.** Which “% Activation” value (CFTR ΔF508 mutant) does the source give for CC(C)OCCNC(=O)c1ncc(S(=O)(=O)c2ccc(C(F)(F)F)cc2)cc1N [Compound 192, 3-amino-N-[2-(propan-2-yloxy)ethyl]-5-{[4-(trifluoromethyl)phenyl]sulfonyl}pyridine-2-carboxamide] here?
**A.** 101.5%

**Q.** And the EC50 (CFTR ΔF508 mutant)?
**A.** 0.0388 µM

**Q.** What about the “% Activation” value (CFTR G551D mutant) of the same compound?
**A.** 58.4%

**Q.** What about the EC50 (CFTR G551D mutant) of the same compound?
**A.** 0.868 µM
